This is an account of results in PMC8434109, “Synthesis and Biological Activity of a Cytostatic Inhibitor of MLLr Leukemia Targeting the DOT1L Protein” (Molecules, 2021).

One may read the IC50 as the concentration that inhibits the measured activity by half. By half-life is commonly meant the time needed for the level to fall by half in the phase considered. The low end stands for rapid decline, the high end for slow decline.

One data set deals with recombinant hDOT1L (Homo sapiens, UniProt Q8TEK3). Kind of data set: AlphaLISA DOT1L enzymatic inhibition assay on purified nucleosomes. A general note: Bead proximity is the source of the signal in Alpha formats.
Another data set can be described thus: Microsomal stability. The following applies: mouse, liver microsomes. In kind it is in vitro ADME. Background: Liver microsomes are a subcellular fraction often used to study metabolism.
For data set [1], the system named is MV4-11 cells. Put plainly: Flow cytometry apoptosis analysis (Annexin V-APC/7-AAD). In kind it is cell-based, human. The following applies: MV4-11. The procedure: (§1) A decrease in the S phase of the cell cycle was also observed from 24% (day 8) to 20% (day 10), 13% (day 12).
(§2) In a 12-well plate, 2 mL exponentially growing MV4-11 cells were plated with a density of 2 × 10^5 cells/mL. […] Culture media and drugs were replaced every 2–3 days and cells were split back to a density of 2 × 10^5 cells/mL at the same time. Cells were harvested on days 8, 10, 12 and split to allow the analysis of cell cycle and Annexin V staining simultaneously. The apoptosis ratio was detected by an Annexin V-APC/7-AAD double staining assay (SONY 3804610) and cells were prepared according to the manufacturer’s recommendations. Cells for the cell cycle analysis were collected by centrifugation at 500× g for 5 min at 4 °C. The pellets were washed once with cold PBS and then fixed with 70% ethanol on ice for 30 min. Afterwards, the cells were washed once with cold PBS and stained with propidium iodide (Invitrogen P3566) for 30 min at 37 °C. Samples were measured using an Attune NxT acoustic focusing cytometer (Life Technologies), data were analyzed by FlowJo.
For orientation: A flow cytometer gives signals particle by particle.

In the next data set the test system is MOLM-13 cells (MLL-AF9). Put plainly: Cell proliferation, trypan blue counting. The format is cell-based. Particulars: Homo sapiens, 360 h; MOLM-13 (AF9), 15-day treatment; read-out: EC50 of the proliferation inhibition.
For the next data set, the system named is KOPN8 cells (MLL-ENL). Put plainly: Cell proliferation, trypan blue counting. The format is cell-based. The following applies: Homo sapiens, KOPN-8, 360 h, 15-day treatment, read-out: EC50 of the proliferation inhibition. Here is the method: (§3) For assessment of cell proliferation and viability in human cell lines, exponentially growing cells were placed, in triplicate, in 96-well plates at a density of 35,000 cells/well at a final volume of 100 µL. […] The viable cell number was determined every 3–4 days for up to 15 days to 21 days using trypan blue counting using Cellometer Disposable Counting Chambers for the Cellometer Mini Automated Cell Counter.

Another data set deals with NOMO-1 cells (MLL-AF9). Kind of data set: Cell proliferation, trypan blue counting. The format is cell-based. Particulars: Homo sapiens, 360 h; NOMO-1 (AF9), 15-day treatment; read-out: EC50 of the proliferation inhibition. The procedure: as §3
The subject of data set [2] is MV4-11 cells. Put plainly: Flow cytometry cell cycle analysis (propidium iodide). The format is cell-based, human. Particulars: MV4-11, 1 µM. The procedure: as §1, §2
A further data set has as its system MV4-11 cells (MLL-AF4). Put plainly: Cell proliferation and viability, trypan blue counting. In kind it is cell-based, human.
A further data set deals with H3K79me2 in MV4-11 cells. Put plainly: Western blot of H3K79me2 normalized to total H3. In kind it is cell-based, human. Particulars: MV4-11, 4 days, increasing concentrations. Here is the method:
Next, we evaluated the effect on the demethylation of H3K79 in MLL-AF9 MOLM13 cells (Figure 7B).
The non-adherent cell lines MV4-11, MOLM-13, and KOPN8 exponentially growing cells were plated in 12-well plates (1 plate for each experiment) at a rate of 500,000 cells per well at a final volume of 2 mL. The cells were incubated in the presence of increasing inhibitor concentrations (0.1, 0.32, 1, 3.2, 10 µM). The cells (1 to 2 million) were harvested at the time chosen according to the line in order to extract the histones and the RNAs.
For the isolation of histones from cells, 1 to 2 million cells were collected, after exposure to the chosen treatment, by centrifugation at 200× g and lysed by 5 min of incubation on ice in 250 μL of the nuclear extraction buffer (10 mM Tris-HCl, 10 mM MgCl2, 25 mM KCl, 1% Triton X-100, 8.6% sucrose, Roche Protease inhibitor tablet 1836145). The nuclei were collected by centrifugation at 600× g for 5 min at 4 °C. The supernatant was removed and the histones were extracted for 1 h with 0.4 N cold sulfuric acid. The extracts were clarified by centrifugation at 10,000× g for 10 min at 4 °C and transferred to a microcentrifuge tube containing a 10× volume of ice-cold acetone. The histones were precipitated at ‒20 °C overnight and recovered by centrifugation at 1500× g for 10 min in the form of a pellet and then resuspended in 80 μL of water. Histones were quantified by absorbance measured by a nanodrop at 276 nm.
After extraction, the histones (500ng) were separated on 4–20% Tris-Glycine gels (Invitrogen) and transferred onto a nitrocellulose membrane ([…]) using the iBlot® Gel Transfer Stacks Nitrocellulose kit Mini (Invitrogen). After blocking nonspecific sites for 1 h at room temperature in a solution of 1X TBS at 5% milk, the membrane was incubated with rabbit anti-H3K79me2 (ab3594, 1/1000) or anti-H3 (ab1791)1/1000) overnight at 4 °C or 1 h at RT. The membrane was then washed three times for 5 min in a 1X TBS solution containing 0.05% Tween20 and was then incubated with an HRP anti-rabbit secondary antibody (NA934V, 1/10,000) for 1 h at RT. […]

Sequence of recombinant hDOT1L (Q8TEK3 1-416): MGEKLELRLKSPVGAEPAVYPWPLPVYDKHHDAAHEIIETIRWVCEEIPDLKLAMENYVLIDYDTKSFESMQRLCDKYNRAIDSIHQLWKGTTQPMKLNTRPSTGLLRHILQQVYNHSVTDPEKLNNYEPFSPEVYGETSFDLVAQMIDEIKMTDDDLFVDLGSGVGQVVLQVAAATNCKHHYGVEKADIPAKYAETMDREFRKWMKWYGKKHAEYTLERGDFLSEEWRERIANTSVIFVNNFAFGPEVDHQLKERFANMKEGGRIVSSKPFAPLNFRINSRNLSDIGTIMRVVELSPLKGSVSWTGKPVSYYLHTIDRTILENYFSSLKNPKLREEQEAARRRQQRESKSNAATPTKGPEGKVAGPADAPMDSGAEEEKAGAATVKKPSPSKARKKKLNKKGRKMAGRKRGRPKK

Turning to `CC(C)[C@@H](CCCNC(=O)Nc1ccc(C(C)(C)C)cc1)N[C@H]1C[C@@H](n2cnc3c(N)ncnc32)[C@H](O)[C@@H]1O` [Dia1, 1-((R)-4-(((1S,2R,3S,4R)-4-(6-amino-9H-purin-9-yl)-2,3-dihydroxycyclopentyl)amino)-5-methylhexyl)-3-(4-(tert-butyl)phenyl)urea], the 50% inhibitory concentration (IC50) on recombinant hDOT1L was 316 nM.
In turn, `CC(C)N(CCCNC(=O)Nc1ccc(C(C)(C)C)cc1)C[C@H]1O[C@@H](n2ccc3c(N)ncnc32)[C@H](O)[C@@H]1O` [EPZ-4777, reference compound] showed a half-life in “Microsomal stability” of 5.3 min.
In the case of `CC(C)N(C[C@H]1O[C@@H](n2cnc3c(N)ncnc32)[C@H](O)[C@@H]1O)[C@H]1C[C@@H](CCc2nc3cc(C(C)(C)C)ccc3[nH]2)C1` [EPZ-5676, reference compound], the effect on apoptosis result in the data set with MV4-11 cells [1] was “increase in apoptosis”. The EC50 in the data set with MOLM-13 cells (MLL-AF9) turned out to be 92 ± 2 nM; in the data set with KOPN8 cells (MLL-ENL) it was 86 ± 4 nM; with NOMO-1 cells (MLL-AF9) it was 562 ± 15 nM; in the data set with MV4-11 cells (MLL-AF4) (Homo sapiens, 360 h, MV4-11 (AF4), 15-day treatment, read-out: EC50 of the proliferation inhibition), 21 ± 1 nM. In the data set “Microsomal stability”, this molecule showed a half-life of 5.7 min. In addition, the “effect on the cell cycle” value with MV4-11 cells [2] is on record as “increase in cells in subG1”. Further, the “effect on cell viability / proliferation” value with MV4-11 cells (MLL-AF4) (MV4-11, after 8 days of treatment) is on record as “cell viability decreased by half”. Also, in the data set with H3K79me2 in MV4-11 cells, the “H3K79me2 methylation compared to DMSO treated cells” value is given as “efficient decrease in methylation”.
